Results: US9988400B2 (Genentech, Inc., priority 2013, dated 2018)

Each compound was assayed against T1, HEK cells stably transfected with tetracycline inducible hNR1 and hNR2A (Homo sapiens, UniProt Q05586+Q12879) (assay: Assay 1: Cell-Based Assay, cytosolic calcium response to positive allosteric modulators (with 30 μM glycine and 300 nM L-glutamate, EC30)). Conditions: Table 2; cytosolic calcium response, with 30 μM glycine and 300 nM L-glutamate (EC30); — = no plateau was reached.
T1 construct: expressed in transfected cells; host or cells: HEK cells, stably transfected, tetracycline/doxycycline inducible
T1 sequence (Q12879 23-1464, other chains not shown): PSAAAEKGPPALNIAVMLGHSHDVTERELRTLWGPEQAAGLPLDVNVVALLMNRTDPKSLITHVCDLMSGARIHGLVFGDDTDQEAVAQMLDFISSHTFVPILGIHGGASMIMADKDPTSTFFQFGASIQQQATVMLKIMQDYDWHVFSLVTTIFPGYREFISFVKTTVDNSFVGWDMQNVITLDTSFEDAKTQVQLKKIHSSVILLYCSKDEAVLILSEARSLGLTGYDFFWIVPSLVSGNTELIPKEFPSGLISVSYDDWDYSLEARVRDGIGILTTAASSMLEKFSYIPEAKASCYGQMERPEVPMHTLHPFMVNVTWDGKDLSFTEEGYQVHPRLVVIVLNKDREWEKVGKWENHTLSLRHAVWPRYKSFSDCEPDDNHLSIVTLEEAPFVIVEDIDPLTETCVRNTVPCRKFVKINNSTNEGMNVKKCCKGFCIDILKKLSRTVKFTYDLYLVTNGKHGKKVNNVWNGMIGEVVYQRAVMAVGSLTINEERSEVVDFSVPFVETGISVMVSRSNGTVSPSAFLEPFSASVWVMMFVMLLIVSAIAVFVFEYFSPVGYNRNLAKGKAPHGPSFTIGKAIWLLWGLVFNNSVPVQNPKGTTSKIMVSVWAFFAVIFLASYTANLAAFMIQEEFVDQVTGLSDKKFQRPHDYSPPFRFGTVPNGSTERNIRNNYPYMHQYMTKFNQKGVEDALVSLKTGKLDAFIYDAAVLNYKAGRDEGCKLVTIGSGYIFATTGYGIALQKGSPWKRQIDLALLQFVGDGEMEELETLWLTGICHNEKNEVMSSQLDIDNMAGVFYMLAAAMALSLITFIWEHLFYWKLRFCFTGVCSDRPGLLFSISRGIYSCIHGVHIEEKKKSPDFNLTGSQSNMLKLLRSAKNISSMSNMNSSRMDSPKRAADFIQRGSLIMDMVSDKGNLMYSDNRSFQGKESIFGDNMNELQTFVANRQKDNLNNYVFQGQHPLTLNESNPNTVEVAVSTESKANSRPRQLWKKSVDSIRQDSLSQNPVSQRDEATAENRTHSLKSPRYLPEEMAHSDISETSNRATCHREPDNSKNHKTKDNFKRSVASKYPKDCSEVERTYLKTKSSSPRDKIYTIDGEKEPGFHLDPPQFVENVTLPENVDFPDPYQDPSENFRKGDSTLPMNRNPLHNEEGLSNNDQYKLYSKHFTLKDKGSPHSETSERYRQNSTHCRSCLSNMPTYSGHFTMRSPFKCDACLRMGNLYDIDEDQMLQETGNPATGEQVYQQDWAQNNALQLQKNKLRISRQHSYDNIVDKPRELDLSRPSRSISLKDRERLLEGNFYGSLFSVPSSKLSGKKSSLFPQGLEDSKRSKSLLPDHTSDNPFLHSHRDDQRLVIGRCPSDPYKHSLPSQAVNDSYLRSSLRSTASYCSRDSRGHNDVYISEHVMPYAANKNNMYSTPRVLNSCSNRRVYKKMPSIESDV
In short: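 Cells induced 24 h with 7.5 μg mL^−1 doxycycline plus 500 μM (+)-ketamine, loaded 60 min at 37 °C with calcium dye in Mg-free HBSS (1.8 mM Ca, probenecid, 10 μM (+)-ketamine, pH 7.15). Peak RFU over 5 min after compound addition, scaled to 100 μM L-glutamate (100%) and 0 μM (0%); four-parameter Hill fit for EC50, max % if no plateau.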

| EC50 [µM] | Compound |
| --- | --- |
| 26.5 | CC1(C)CCc2sc3nc(Cn4nc(C(F)(F)F)cc4C4CC4)cc(=O)n3c21 [Example 27.7, 10-{[5-cyclopropyl-3-(trifluoromethyl)-1H-pyrazol-1-yl]methyl}-3,3-dimethyl-7-thia-1,9-diazatricyclo[6.4.0.0^{2,6}]dodeca-2(6),8,10-trien-12-one] |
| 30.4 | CC1(C)CCc2sc3nc(Cn4nc(C5CC5)cc4C(F)(F)F)cc(=O)n3c21 [Example 27.8, 10-{[3-cyclopropyl-5-(trifluoromethyl)-1H-pyrazol-1-yl]methyl}-3,3-dimethyl-7-thia-1,9-diazatricyclo[6.4.0.0^{2,6}]dodeca-2(6),8,10-trien-12-one] |
| 29.1 | CC(=O)c1c(C)sc2nc(Cc3cccc(C#N)c3F)cc(=O)n12 [Example 27.10, 3-((3-acetyl-2-methyl-5-oxo-5H-thiazolo[3,2-a]pyrimidin-7-yl)methyl)-2-fluorobenzonitrile] |
| 44.5 | Cc1sc2nc(Cc3cccc(C(F)(F)F)c3F)cc(=O)n2c1CO [Example 27.14, 7-(2-fluoro-3-(trifluoromethyl)benzyl)-3-(hydroxymethyl)-2-methyl-5H-thiazolo[3,2-a]pyrimidin-5-one] |

Same assay, conditions: Table 3; cytosolic calcium response, with 30 μM glycine and 300 nM L-glutamate (EC30); — = no plateau was reached

| EC50 [µM] | Compound |
| --- | --- |
| 2.62 | Cc1sc2nc(Cn3nc(C(F)(F)F)cc3Cl)cc(=O)n2c1C(C)C#N (stereo not shown) [Example 251A] |
| 0.932 | CNC(=O)c1c(C)sc2nc(Cc3cccc(C4CC4)c3F)cc(=O)n12 [compound 1, 7-[(3-cyclopropyl-2-fluoro-phenyl)methyl]-N,2-dimethyl-5-oxo-thiazolo[3,2-a]pyrimidine-3-carboxamide] |
| 33.7 | CCNC(=O)c1c(C)sc2nc(Cc3c(F)ccc(F)c3F)cc(=O)n12 [compound 2, N-ethyl-2-methyl-5-oxo-7-[(2,3,6-trifluorophenyl)methyl]thiazolo[3,2-a]pyrimidine-3-carboxamide] |
| 10.9 | Cc1sc2nc(Cc3cccc(C#N)c3F)cc(=O)n2c1-c1ncco1 [compound 3, 2-fluoro-3-[(2-methyl-3-oxazol-2-yl-5-oxo-thiazolo[3,2-a]pyrimidin-7-yl)methyl]benzonitrile] |
| 3.88 | CCNC(=O)c1c(C)sc2nc(Cc3cc(C#N)cc(C4CC4)c3F)cc(=O)n12 [compound 4, 7-[(5-cyano-3-cyclopropyl-2-fluoro-phenyl)methyl]-N-ethyl-2-methyl-5-oxo-thiazolo[3,2-a]pyrimidine-3-carboxamide] |
| 15.1 | CCNC(=O)c1c(C)sc2nc(Cc3cccc(OC)c3F)cc(=O)n12 [compound 5, N-ethyl-7-[(2-fluoro-3-methoxy-phenyl)methyl]-2-methyl-5-oxo-thiazolo[3,2-a]pyrimidine-3-carboxamide] |
| 0.753 | CNC(=O)c1c(C)sc2nc(Cc3cccc(C4CC4)c3F)c(F)c(=O)n12 [compound 6, 7-[(3-cyclopropyl-2-fluoro-phenyl)methyl]-6-fluoro-N,2-dimethyl-5-oxo-thiazolo[3,2-a]pyrimidine-3-carboxamide] |
| 9.73 | CNC(=O)Cc1c(C)sc2nc(Cc3cccc(Cl)c3F)cc(=O)n12 [compound 7, 2-[7-[(3-chloro-2-fluoro-phenyl)methyl]-2-methyl-5-oxo-thiazolo[3,2-a]pyrimidin-3-yl]-N-methyl-acetamide] |
| 2.55 | CCNC(=O)c1c(C)sc2nc(Cc3cccc(Cl)c3F)c(F)c(=O)n12 [compound 8, 7-[(3-chloro-2-fluoro-phenyl)methyl]-N-ethyl-6-fluoro-2-methyl-5-oxo-thiazolo[3,2-a]pyrimidine-3-carboxamide] |
| 8.04 | CNC(=O)c1c(C)sc2nc(Cc3cc(F)c(F)cc3OC)cc(=O)n12 [compound 9, 7-[(4,5-difluoro-2-methoxy-phenyl)methyl]-N,2-dimethyl-5-oxo-thiazolo[3,2-a]pyrimidine-3-carboxamide] |
| 0.471 | Cc1sc2nc(Cc3cccc(C#N)c3F)cc(=O)n2c1C1CC1C (stereo not shown) [compound 10, 2-fluoro-3-[[2-methyl-3-(2-methylcyclopropyl)-5-oxo-thiazolo[3,2-a]pyrimidin-7-yl]methyl]benzonitrile] |
| 1.14 | CNC(=O)Cc1c(C)sc2nc(Cc3cccc(C4CC4)c3F)cc(=O)n12 [compound 11, 2-[7-[(3-cyclopropyl-2-fluoro-phenyl)methyl]-2-methyl-5-oxo-thiazolo[3,2-a]pyrimidin-3-yl]-N-methyl-acetamide] |
| 2.05 | Cc1sc2nc(Oc3cccc(C(F)(F)F)c3)cc(=O)n2c1C1CC1CO (stereo not shown) [compound 12, 3-[2-(Hydroxymethyl)cyclopropyl]-2-methyl-7-[3-(trifluoromethyl)phenoxy]thiazolo[3,2-a]pyrimidin-5-one] |
| 0.858 | CCNC(=O)c1c(C)sc2nc(Cc3cccc(C(F)(F)F)c3F)c(F)c(=O)n12 [compound 13, N-ethyl-6-fluoro-7-[[2-fluoro-3-(trifluoromethyl)phenyl]methyl]-2-methyl-5-oxo-thiazolo[3,2-a]pyrimidine-3-carboxamide] |
| 1.56 | CNC(=O)c1c(C)sc2nc(Cc3cc(C(F)(F)F)ccc3Cl)cc(=O)n12 [compound 14, 7-[[2-chloro-5-(trifluoromethyl)phenyl]methyl]-N,2-dimethyl-5-oxo-thiazolo[3,2-a]pyrimidine-3-carboxamide] |
| 9.02 | Cc1sc2nc(Cc3cccc(C#N)c3F)c(F)c(=O)n2c1C(=O)NCC(F)(F)F [compound 15, 7-[(3-cyano-2-fluoro-phenyl)methyl]-6-fluoro-2-methyl-5-oxo-N-(2,2,2-trifluoroethyl)thiazolo[3,2-a]pyrimidine-3-carboxamide] |
| 15.5 | CNC(=O)c1c(C)sc2nc(Cc3cc(F)c(F)cc3Cl)cc(=O)n12 [compound 16, 7-[(2-chloro-4,5-difluoro-phenyl)methyl]-N,2-dimethyl-5-oxo-thiazolo[3,2-a]pyrimidine-3-carboxamide] |
| 7.04 | CCNC(=O)c1c(C)sc2nc(Cc3cc(F)c(F)cc3CCF)cc(=O)n12 [compound 17, 7-[[4,5-difluoro-2-(2-fluoroethyl)phenyl]methyl]-N-ethyl-2-methyl-5-oxo-thiazolo[3,2-a]pyrimidine-3-carboxamide] |
| 2.25 | CNC(=O)Cc1c(C)sc2nc(Cn3nc(C(F)(F)F)cc3C3CC3)cc(=O)n12 [compound 18, 2-[7-[[5-cyclopropyl-3-(trifluoromethyl)pyrazol-1-yl]methyl]-2-methyl-5-oxo-thiazolo[3,2-a]pyrimidin-3-yl]-N-methyl-acetamide] |
| 5.45 | CNC(=O)Cc1c(C)sc2nc(Cc3cccc(C(F)(F)F)c3F)cc(=O)n12 [compound 19, 2-[7-[[2-fluoro-3-(trifluoromethyl)phenyl]methyl]-2-methyl-5-oxo-thiazolo[3,2-a]pyrimidin-3-yl]-N-methyl-acetamide] |
| 10.2 | CCNC(=O)c1c(C)sc2nc(Cn3nc(C)cc3Cl)cc(=O)n12 [compound 20, 7-[(5-chloro-3-methyl-pyrazol-1-yl)methyl]-N-ethyl-2-methyl-5-oxo-thiazolo[3,2-a]pyrimidine-3-carboxamide] |
| 7.88 | CCNC(=O)c1c(C)sc2nc(Cn3nc(Cl)cc3C)cc(=O)n12 [compound 21, 7-[(3-chloro-5-methyl-pyrazol-1-yl)methyl]-N-ethyl-2-methyl-5-oxo-thiazolo[3,2-a]pyrimidine-3-carboxamide] |
| 4.13 | CCNC(=O)c1c(C)sc2nc(Cn3nc(Cl)cc3C3CC3)cc(=O)n12 [compound 22, 7-[(3-chloro-5-cyclopropyl-pyrazol-1-yl)methyl]-N-ethyl-2-methyl-5-oxo-thiazolo[3,2-a]pyrimidine-3-carboxamide] |
| 3.48 | CCNC(=O)c1c(C)sc2nc(Cn3nc(C4CC4)cc3Cl)cc(=O)n12 [compound 23, 7-[(5-chloro-3-cyclopropyl-pyrazol-1-yl)methyl]-N-ethyl-2-methyl-5-oxo-thiazolo[3,2-a]pyrimidine-3-carboxamide] |
| 1.33 | Cc1sc2nc(Cc3nc(C(F)(F)F)cs3)cc(=O)n2c1C1CC1CO (stereo not shown) [compound 24, 3-[2-(Hydroxymethyl)cyclopropyl]-2-methyl-7-[[4-(trifluoromethyl)thiazol-2-yl]methyl]thiazolo[3,2-a]pyrimidin-5-one] |
| 0.292 | CCN(Cc1cc(=O)n2c(CC(=O)NC)c(C)sc2n1)c1ccc(F)cc1 [compound 25, 2-[7-[(N-ethyl-4-fluoro-anilino)methyl]-2-methyl-5-oxo-thiazolo[3,2-a]pyrimidin-3-yl]-N-methyl-acetamide] |
| 4.82 | CCNC(=O)c1c(C)sc2nc(Cn3nc(C(F)(F)F)cc3C)cc(=O)n12 [compound 26, N-ethyl-2-methyl-7-[[5-methyl-3-(trifluoromethyl)pyrazol-1-yl]methyl]-5-oxo-thiazolo[3,2-a]pyrimidine-3-carboxamide] |
| 10.6 | CCNC(=O)c1c(C)sc2nc(Cn3nc(C)cc3C(F)(F)F)cc(=O)n12 [compound 27, N-ethyl-2-methyl-7-[[3-methyl-5-(trifluoromethyl)pyrazol-1-yl]methyl]-5-oxo-thiazolo[3,2-a]pyrimidine-3-carboxamide] |
| 0.388 | CCNC(=O)c1c(C)sc2nc(Cn3nc(C(F)(F)F)cc3Cl)cc(=O)n12 [compound 28, 7-[[5-Chloro-3-(trifluoromethyl)-1H-pyrazol-1-yl]methyl]-N-ethyl-2-methyl-5-oxo-5H-[1,3]thiazolo[3,2-a]pyrimidine-3-carboxamide] |
| 1.76 | CCNC(=O)c1c(C)sc2nc(Cn3nc(Cl)cc3C(F)(F)F)cc(=O)n12 [compound 29, 7-[[3-chloro-5-(trifluoromethyl)pyrazol-1-yl]methyl]-N-ethyl-2-methyl-5-oxo-thiazolo[3,2-a]pyrimidine-3-carboxamide] |
